Experimental data as given in ChEMBL document CHEMBL3621092, “Lipid-conjugated Smac analogues” (Bioorg Med Chem Lett, 2015).

Test system: MDA-MB-231
Test: Growth inhibition of human MDA-MB-231 cells assessed as reduction in cell viability incubated for 48 hrs by PrestoBlue dye based florescence assay
Assay type: functional
Settings: MDA-MB-231, 48 h

| EC50 | Structure (SMILES) |
| --- | --- |
| 14.4 µM | CN[C@@H](C)C(=O)N[C@@H](CCCCNC(=O)Nc1ccc(Oc2ccc(NC(=O)NCCCC[C@H](NC(=O)[C@H](C)NC)C(=O)N3CCC[C@H]3C(=O)NC(c3ccccc3)c3ccccc3)cc2)cc1)C(=O)N1CCC[C@H]1C(=O)NC(c1ccccc1)c1ccccc1 |
| 18.4 µM | CN[C@@H](C)C(=O)N[C@@H](CSCc1ccc(Oc2ccc(CSC[C@H](NC(=O)[C@H](C)NC)C(=O)N3CCC[C@H]3C(=O)NC(c3ccccc3)c3ccccc3)cc2)cc1)C(=O)N1CCC[C@H]1C(=O)NC(c1ccccc1)c1ccccc1 |
| 9.6 µM | CN[C@@H](C)C(=O)N[C@@H](CSCc1ccc(CSC[C@H](NC(=O)[C@H](C)NC)C(=O)N2CCC[C@H]2C(=O)NC(c2ccccc2)c2ccccc2)cc1)C(=O)N1CCC[C@H]1C(=O)NC(c1ccccc1)c1ccccc1 |
| 52.4 µM | CN[C@@H](C)C(=O)N[C@@H](CSCCS(=O)(=O)CCSC[C@H](NC(=O)[C@H](C)NC)C(=O)N1CCC[C@H]1C(=O)NC(c1ccccc1)c1ccccc1)C(=O)N1CCC[C@H]1C(=O)NC(c1ccccc1)c1ccccc1 |
| > 100 µM | CN[C@@H](C)C(=O)N[C@@H](CSCc1cccc(Cc2cccc(CSC[C@H](NC(=O)[C@H](C)NC)C(=O)N3CCC[C@H]3C(=O)NC(c3ccccc3)c3ccccc3)c2)c1)C(=O)N1CCC[C@H]1C(=O)NC(c1ccccc1)c1ccccc1 |
| 7.4 µM | CN[C@@H](C)C(=O)N[C@@H](CSCc1cccc(CSC[C@H](NC(=O)[C@H](C)NC)C(=O)N2CCC[C@H]2C(=O)NC(c2ccccc2)c2ccccc2)c1)C(=O)N1CCC[C@H]1C(=O)NC(c1ccccc1)c1ccccc1 |
| 4 µM | CN[C@@H](C)C(=O)N[C@@H](CSCc1ccc(-c2ccc(CSC[C@H](NC(=O)[C@H](C)NC)C(=O)N3CCC[C@H]3C(=O)NC(c3ccccc3)c3ccccc3)cc2)cc1)C(=O)N1CCC[C@H]1C(=O)NC(c1ccccc1)c1ccccc1 |

The remaining lines, values behind:

| Structure (SMILES) | EC50 |
| --- | --- |
| CN[C@@H](C)C(=O)N[C@@H](CO)C(=O)N1CCC[C@H]1C(=O)NC(c1ccccc1)c1ccccc1 | > 100 µM |
| CN[C@@H](C)C(=O)N[C@@H](CCCCNC(=O)NCCCC[C@H](NC(=O)[C@H](C)NC)C(=O)N1CCC[C@H]1C(=O)NC(c1ccccc1)c1ccccc1)C(=O)N1CCC[C@H]1C(=O)NC(c1ccccc1)c1ccccc1 | > 100 µM |
| CN[C@@H](C)C(=O)N[C@@H](CSCC(=O)NCCNC(=O)CSC[C@H](NC(=O)[C@H](C)NC)C(=O)N1CCC[C@H]1C(=O)NC(c1ccccc1)c1ccccc1)C(=O)N1CCC[C@H]1C(=O)NC(c1ccccc1)c1ccccc1 | > 100 µM |
| CCCCCCCCCCCCCCCC(=O)OCCN(CC(=O)NCCCC[C@H](NC(=O)[C@H](C)NC)C(=O)N1CCC[C@H]1C(=O)NC(c1ccccc1)c1ccccc1)CC(=O)NCCCC[C@H](NC(=O)[C@H](C)NC)C(=O)N1CCC[C@H]1C(=O)NC(c1ccccc1)c1ccccc1 | 4.3 µM |
| CN[C@@H](C)C(=O)N[C@@H](CCCCNC(=O)CCCCCCC(=O)NCCCC[C@H](NC(=O)[C@H](C)NC)C(=O)N1CCC[C@H]1C(=O)NC(c1ccccc1)c1ccccc1)C(=O)N1CCC[C@H]1C(=O)NC(c1ccccc1)c1ccccc1 | > 100 µM |
| CN[C@@H](C)C(=O)N[C@@H](CCCCNC(=O)O[C@H]1CC[C@@]2(C)C(=CCC3C2CC[C@@]2(C)C3CC[C@@H]2[C@H](C)CCCC(C)C)C1)C(=O)N1CCC[C@H]1C(=O)NC(c1ccccc1)c1ccccc1 (some centres not stated) | 9.7 µM |
| CN[C@@H](C)C(=O)N[C@@H](CCCCNC(=N)N)C(=O)N1CCC[C@H]1C(=O)NC(c1ccccc1)c1ccccc1 | > 100 µM |
| CN[C@@H](C)C(=O)N[C@@H](CCCCN)C(=O)N1CCC[C@H]1C(=O)NC(c1ccccc1)c1ccccc1 | > 100 µM |
| CN[C@@H](C)C(=O)N[C@@H](CS)C(=O)N1CCC[C@H]1C(=O)NC(c1ccccc1)c1ccccc1 | > 100 µM |
| CN[C@@H](C)C(=O)N[C@@H](CCCCNC(=O)Nc1ccc(NC(=O)NCCCC[C@H](NC(=O)[C@H](C)NC)C(=O)N2CCC[C@H]2C(=O)NC(c2ccccc2)c2ccccc2)cc1)C(=O)N1CCC[C@H]1C(=O)NC(c1ccccc1)c1ccccc1 | 34.8 µM |
| CN[C@@H](C)C(=O)N[C@@H](CCCCNC(=O)OCC1c2ccccc2-c2ccccc21)C(=O)N1CCC[C@H]1C(=O)NC(c1ccccc1)c1ccccc1 | 19 µM |
| CCCCCCCCCCCCCCCC(=O)N(CC(=O)NCCCC[C@H](NC(=O)[C@H](C)NC)C(=O)N1CCC[C@H]1C(=O)NC(c1ccccc1)c1ccccc1)CC(=O)NCCCC[C@H](NC(=O)[C@H](C)NC)C(=O)N1CCC[C@H]1C(=O)NC(c1ccccc1)c1ccccc1 | 4.2 µM |
| CN[C@@H](C)C(=O)N[C@@H](CCCCNC(=O)CNCC(=O)NCCCC[C@H](NC(=O)[C@H](C)NC)C(=O)N1CCC[C@H]1C(=O)NC(c1ccccc1)c1ccccc1)C(=O)N1CCC[C@H]1C(=O)NC(c1ccccc1)c1ccccc1 | > 100 µM |
| CCCCCCCCCCCCCCCCCCCCCCCC(=O)NCCCC[C@H](NC(=O)[C@H](C)NC)C(=O)N1CCC[C@H]1C(=O)NC(c1ccccc1)c1ccccc1 | > 100 µM |
| CCCCCCCCCCCCCCCCSCc1cc(CSC[C@H](NC(=O)[C@H](C)NC)C(=O)N2CCC[C@H]2C(=O)NC(c2ccccc2)c2ccccc2)cc(CSC[C@H](NC(=O)[C@H](C)NC)C(=O)N2CCC[C@H]2C(=O)NC(c2ccccc2)c2ccccc2)c1 | 11.3 µM |
| CN[C@@H](C)C(=O)N[C@@H](CSSC(C)(C)C)C(=O)N1CCC[C@H]1C(=O)NC(c1ccccc1)c1ccccc1 | 49.9 µM |

Test system: MDA-MB-231
Test: Induction of apoptosis in human MDA-MB-231 cells assessed as increase in caspase-3/7 activity incubated for 24 hrs by luminescence based assay
Assay type: functional, cell-based
Settings: not given

| Structure (SMILES) | Activity |
| --- | --- |
| CCCCCCCCCCCCCCCC(=O)N(CC(=O)NCCCC[C@H](NC(=O)[C@H](C)NC)C(=O)N1CCC[C@H]1C(=O)NC(c1ccccc1)c1ccccc1)CC(=O)NCCCC[C@H](NC(=O)[C@H](C)NC)C(=O)N1CCC[C@H]1C(=O)NC(c1ccccc1)c1ccccc1 | Dose-dependent effect |

Test system: not listed separately
Test: Stability in mouse plasma incubated at 37 degC by LC/MS method
Assay type: ADME, cell-free
Settings: read-out: Stability

| half-life | Structure (SMILES) |
| --- | --- |
| < 31 h | CCCCCCCCCCCCCCCC(=O)N(CC(=O)NCCCC[C@H](NC(=O)[C@H](C)NC)C(=O)N1CCC[C@H]1C(=O)NC(c1ccccc1)c1ccccc1)CC(=O)NCCCC[C@H](NC(=O)[C@H](C)NC)C(=O)N1CCC[C@H]1C(=O)NC(c1ccccc1)c1ccccc1 |

Test system: MDA-MB-231
Test: Induction of apoptosis in human MDA-MB-231 cells assessed as increase in caspase-3/7 activity incubated for 24 hrs by luminescence based assay relative to control
Assay type: functional
Settings: not given

| Structure (SMILES) | fold change (FC) |
| --- | --- |
| CN[C@@H](C)C(=O)N[C@@H](CCCCNc1cc(NCCCC[C@H](NC(=O)[C@H](C)NC)C(=O)N2CCC[C@H]2C(=O)NC(c2ccccc2)c2ccccc2)c([N+](=O)[O-])cc1[N+](=O)[O-])C(=O)N1CCC[C@H]1C(=O)NC(c1ccccc1)c1ccccc1 | 2.7 |
| CN[C@@H](C)C(=O)N[C@@H](CSCc1ccc(-c2ccc(CSC[C@H](NC(=O)[C@H](C)NC)C(=O)N3CCC[C@H]3C(=O)NC(c3ccccc3)c3ccccc3)cc2)cc1)C(=O)N1CCC[C@H]1C(=O)NC(c1ccccc1)c1ccccc1 | 2.7 |
